Reference: patent US20160355530A1, “HEPATITIS C INHIBITORS AND USES THEREOF” (AbbVie Inc., priority 2010, published 2016)
pEC50, pIC50: −log10 of the molar value. Like-named read-outs stand apart in the source and are kept apart here.

What was measured:
[1] = target: T1, HCV NS5B polymerase 1a-H77 (Hepatitis C virus genotype 1a, UniProt P27958); experiment: biochemical; set-up: species or system HCV genotype 1a; conditions: enzyme, strain 1a H77; read-out: HCV Polymerase Strain 1a H77 IC50
T1 construct: six-histidine tag; made in house; host or cells: E. coli
T1 sequence (P27958 2421-2990): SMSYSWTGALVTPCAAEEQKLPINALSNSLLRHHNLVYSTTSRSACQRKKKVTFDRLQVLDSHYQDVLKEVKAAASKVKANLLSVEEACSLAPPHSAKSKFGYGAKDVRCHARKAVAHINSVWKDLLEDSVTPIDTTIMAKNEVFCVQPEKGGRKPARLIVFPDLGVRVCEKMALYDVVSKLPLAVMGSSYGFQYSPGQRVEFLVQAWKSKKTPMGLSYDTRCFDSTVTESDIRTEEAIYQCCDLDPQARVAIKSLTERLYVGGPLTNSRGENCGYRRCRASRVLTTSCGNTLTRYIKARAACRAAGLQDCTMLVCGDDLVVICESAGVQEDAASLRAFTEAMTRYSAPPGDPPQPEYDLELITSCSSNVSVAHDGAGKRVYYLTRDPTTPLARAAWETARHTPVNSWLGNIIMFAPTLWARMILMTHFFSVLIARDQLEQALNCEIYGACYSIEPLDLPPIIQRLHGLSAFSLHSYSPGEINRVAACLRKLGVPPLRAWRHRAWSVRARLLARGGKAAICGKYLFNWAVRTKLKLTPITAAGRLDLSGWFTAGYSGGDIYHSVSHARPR
Summary of the method: (§1)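 Recombinant NS5B (residues 1–570, His-tagged, E. coli-expressed) copied 5 nM of a 2.1 kb HCV 1b negative-strand 3′-end RNA template with 20 μM CTP, 20 μM ATP and 0.284 μM [3H]UTP for 3 h at 30 °C. Spermine-precipitated RNA was filter-captured and counted, and IC50 was fitted by nonlinear regression.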

[2] = target: T2, HCV NS5B polymerase 1a-H77-C316Y (Hepatitis C virus genotype 1a, UniProt P27958, C2736Y); experiment: biochemical; set-up: species or system HCV genotype 1a
T2 construct: six-histidine tag; made in house; host or cells: E. coli
T2 sequence (P27958 2421-2990 C2736Y): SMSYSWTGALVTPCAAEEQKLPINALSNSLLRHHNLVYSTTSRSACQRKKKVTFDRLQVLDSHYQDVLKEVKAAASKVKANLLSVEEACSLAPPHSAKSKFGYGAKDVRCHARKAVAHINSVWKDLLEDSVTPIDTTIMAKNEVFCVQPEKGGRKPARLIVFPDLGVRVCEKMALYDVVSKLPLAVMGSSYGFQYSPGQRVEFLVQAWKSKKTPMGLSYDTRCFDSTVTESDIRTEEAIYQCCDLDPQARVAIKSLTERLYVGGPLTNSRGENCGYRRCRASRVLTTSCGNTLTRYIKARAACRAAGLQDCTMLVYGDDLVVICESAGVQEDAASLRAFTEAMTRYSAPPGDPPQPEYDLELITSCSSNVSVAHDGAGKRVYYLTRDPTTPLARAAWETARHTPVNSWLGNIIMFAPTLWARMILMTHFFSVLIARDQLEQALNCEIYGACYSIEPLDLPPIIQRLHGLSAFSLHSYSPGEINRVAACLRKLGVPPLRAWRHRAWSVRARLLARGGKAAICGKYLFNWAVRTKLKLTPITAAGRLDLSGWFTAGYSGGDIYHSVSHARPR
Summary of the method: as §1

[3] = test system: HCV NS5B polymerase 1a-H77-C316Y; experiment: biochemical; set-up: species or system HCV genotype 1a; conditions: ratio of enzyme IC50s, 1a H77-C316Y / 1a H77
Summary of the method: as §1

[4] = target: T3, HCV NS5B polymerase 1b BK strain (Hepatitis C virus genotype 1b, UniProt P26663); experiment: HCV NS5B polymerase enzymatic inhibition assay, strain 1b BK; type: biochemical; conditions: enzyme, strain 1b BK; read-out: HCV Polymerase Strain 1b BK IC50
T3 construct: six-histidine tag; made in house; host or cells: E. coli
T3 sequence (P26663 2420-2989): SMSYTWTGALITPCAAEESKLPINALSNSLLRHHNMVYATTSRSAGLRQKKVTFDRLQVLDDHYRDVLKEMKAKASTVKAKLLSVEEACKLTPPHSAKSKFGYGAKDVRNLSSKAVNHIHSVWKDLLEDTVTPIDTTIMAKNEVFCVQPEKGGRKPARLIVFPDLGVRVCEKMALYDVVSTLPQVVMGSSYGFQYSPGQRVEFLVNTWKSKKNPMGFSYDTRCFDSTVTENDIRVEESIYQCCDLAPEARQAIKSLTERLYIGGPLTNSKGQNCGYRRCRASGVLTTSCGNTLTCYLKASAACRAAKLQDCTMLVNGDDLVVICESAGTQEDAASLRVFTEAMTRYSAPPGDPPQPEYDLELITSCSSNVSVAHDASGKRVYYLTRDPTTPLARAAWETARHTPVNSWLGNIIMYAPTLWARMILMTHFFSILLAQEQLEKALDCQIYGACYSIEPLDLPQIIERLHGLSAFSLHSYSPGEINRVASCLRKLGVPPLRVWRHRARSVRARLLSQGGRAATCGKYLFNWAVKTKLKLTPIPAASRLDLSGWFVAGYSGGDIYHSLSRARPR
Summary of the method: as §1

[5] = test system: HCV 1a-H77 subgenomic replicon; experiment: microbe, parasite or virus in culture; type: cell-based, HCV genotype 1a; conditions: Hepatitis C virus, stable replicon
[6] = test system: HCV 1b-BB7 subgenomic replicon; experiment: microbe, parasite or virus in culture; type: cell-based, HCV genotype 1b; conditions: Hepatitis C virus, stable replicon
[7] = test system: chimeric replicon with 2a-J6CF-derived NS5B; experiment: microbe, parasite or virus in culture; type: cell-based, HCV genotype 2a; conditions: Hepatitis C virus, read-out: 2a chimera 5% FBS EC50
[8] = test system: chimeric replicon with genotype 2b NS5B; experiment: microbe, parasite or virus in culture; type: cell-based, HCV genotype 2b; conditions: Hepatitis C virus, read-out: 2b chimera 5% FBS EC50
[9] = test system: chimeric replicon with genotype 3a NS5B; experiment: microbe, parasite or virus in culture; type: cell-based, HCV genotype 3a; conditions: Hepatitis C virus, read-out: 3a chimera 5% FBS EC50
[10] = test system: chimeric replicon with genotype 4a NS5B; experiment: microbe, parasite or virus in culture; type: cell-based, HCV genotype 4a; conditions: Hepatitis C virus, read-out: 4a chimera 5% FBS EC50
[11] = 5% FBS, absence of human plasma, read-out: Stable Replicon 1a H77 5% FBS EC50
[12] = strain 1a H77, 5% FBS + 40% human plasma, read-out: 1a H77 5% FBS + 40% Human Plasma EC50
[13] = strain 1a H77, 5% FBS, no human plasma, read-out: 1a H77 5% FBS EC50
[14] = strain 1a H77, 5% FBS, read-out: 1a H77 5% FBS EC50
[15] = strain 1b BB7, 5% FBS + 40% human plasma, read-out: 1b BB7 5% FBS + 40% Human Plasma EC50
[16] = strain 1b BB7, 5% FBS, no human plasma, read-out: 1b BB7 5% FBS EC50
[17] = strain 1b BB7, 5% FBS, read-out: 1b BB7 5% FBS EC50

Compound | pIC50 [1] | pIC50 [2] | C316Y/1a Fold Resistance [3] | pIC50 [4] | pEC50 [5, 11] | pEC50 [5, 12] | pEC50 [5, 13] | pEC50 [5, 14] | pEC50 [6, 15] | pEC50 [6, 16] | pEC50 [6, 17] | pEC50 [7] | pEC50 [8] | pEC50 [9] | pEC50 [10]
Cn1cnc2ccc(-c3ncc(CN(c4ccc5c(-c6ncc[nH]6)c(-c6ccccc6)oc5c4)S(C)(=O)=O)s3)cc21 [Example 30, N-[3-(1H-imidazol-2-yl)-2-phenyl-1-benzofuran-6-yl]-N-{[2-(1-methyl-1H-benzimidazol-6-yl)-1,3-thiazol-5-yl]methyl}methanesulfonamide] | 8.30 | 7.72 | 4 fold | 7.92 | 6.97 | 5.00 | 6.97 | 6.97 | 5.88 | 8.40 | 8.40 | 7.39 | 6.96 | 8.55 | 6.82
CS(=O)(=O)N(CCCOc1ccccc1)c1cc2oc(-c3ccc(F)cc3)c(-c3ncc[nH]3)c2cc1C1CC1 [Example 37, N-[5-cyclopropyl-2-(4-fluorophenyl)-3-(1H-imidazol-2-yl)-1-benzofuran-6-yl]-N-(3-phenoxypropyl)methanesulfonamide] | 8.26 | 6.84 | 26 fold | 7.62 | 6.46 | 5.86 | 6.46 | 6.46 | 6.28 | 6.84 | 6.84 | 6.28 | 6.12 | 6.78 | 6.22
CS(=O)(=O)N(CC1CCOCC1)c1cc2oc(-c3ccc(F)cc3)c(-c3ncc[nH]3)c2cc1C1CC1 [Example 38, N-[5-cyclopropyl-2-(4-fluorophenyl)-3-(1H-imidazol-2-yl)-1-benzofuran-6-yl]-N-(tetrahydro-2H-pyran-4-ylmethyl)methanesulfonamide] | 8.30 | 6.83 | 30 fold | 7.48 | 7.99 | 6.93 | 7.99 | 7.99 | 6.61 | 7.90 | 7.90 | 7.05 | 7.09 | 7.60 | 6.79
CCCCN(c1cc2oc(-c3ccc(F)cc3)c(-c3ncc[nH]3)c2cc1C1CC1)S(C)(=O)=O [Example 39, N-butyl-N-[5-cyclopropyl-2-(4-fluorophenyl)-3-(1H-imidazol-2-yl)-1-benzofuran-6-yl]methanesulfonamide] | 8.30 | 7.11 | 16 fold | 7.77 | 7.48 | 6.88 | 7.48 | 7.48 | 7.23 | 7.53 | 7.53 | 6.98 | 6.88 | 7.55 | 6.73
CS(=O)(=O)N(CCCC(F)(F)F)c1cc2oc(-c3ccc(F)cc3)c(-c3ncc[nH]3)c2cc1C1CC1 [Example 44, N-[5-cyclopropyl-2-(4-fluorophenyl)-3-(1H-imidazol-2-yl)-1-benzofuran-6-yl]-N-(4,4,4-trifluorobutyl)methanesulfonamide] | 8.30 | 6.98 | 21 fold | 7.72 | 7.63 | 6.38 | 7.63 | 7.63 | 7.09 | 7.79 | 7.79 | 7.03 | 7.01 | 7.82 | 6.75
CC(=O)OCCCCCN(c1cc2oc(-c3ccc(F)cc3)c(-c3ncc[nH]3)c2cc1C1CC1)S(C)(=O)=O [Example 46, 5-{[5-cyclopropyl-2-(4-fluorophenyl)-3-(1H-imidazol-2-yl)-1-benzofuran-6-yl](methylsulfonyl)amino}pentyl acetate] | 8.35 | 7.01 | 22 fold | 7.96 | 8.35 | 6.95 | 8.35 | 8.35 | 7.44 | 8.33 | 8.34 | 7.56 | 7.63 | 8.57 | 7.51
CS(=O)(=O)N(CCC1CCOCC1)c1cc2oc(-c3ccc(F)cc3)c(-c3ncc[nH]3)c2cc1C1CC1 [Example 48, N-[5-cyclopropyl-2-(4-fluorophenyl)-3-(1H-imidazol-2-yl)-1-benzofuran-6-yl]-N-[2-(tetrahydro-2H-pyran-4-yl)ethyl]methanesulfonamide] | 8.11 | 7.13 | 10 fold | 7.64 | 7.94 | 6.83 | 7.94 | 7.94 | 7.12 | 8.08 | 8.07 | 7.08 | 7.16 | 8.00 | 7.33
CS(=O)(=O)N(CC1CC1)c1cc2oc(-c3ccc(F)cc3)c(-c3ncc[nH]3)c2cc1C1CC1 [Example 53, N-[5-cyclopropyl-2-(4-fluorophenyl)-3-(1H-imidazol-2-yl)-1-benzofuran-6-yl]-N-(cyclopropylmethyl)methanesulfonamide] | 8.31 | 6.65 | 46 fold | 6.61 | 6.95 | 6.00 | 6.95 | 6.95 | 6.65 | 7.28 | 7.28 | 6.81 | 6.57 | 7.64 | 6.42
CC(C)=CCN(c1cc2oc(-c3ccc(F)cc3)c(-c3ncc[nH]3)c2cc1C1CC1)S(C)(=O)=O [Example 54, N-[5-cyclopropyl-2-(4-fluorophenyl)-3-(1H-imidazol-2-yl)-1-benzofuran-6-yl]-N-(3-methylbut-2-en-1-yl)methanesulfonamide] | 8.35 | 6.72 | 43 fold | 6.53 | 7.05 | 6.03 | 7.05 | 7.05 | 6.13 | 7.19 | 7.19 | 6.57 | 6.22 | 7.29 | 6.20
CS(=O)(=O)N(CC1CC1(F)F)c1cc2oc(-c3ccc(F)cc3)c(-c3ncc[nH]3)c2cc1C1CC1 (stereo not drawn) [Example 55, N-[5-cyclopropyl-2-(4-fluorophenyl)-3-(1H-imidazol-2-yl)-1-benzofuran-6-yl]-N-[(2,2-difluorocyclopropyl)methyl]methanesulfonamide] | 8.30 | 6.44 | 73 fold | 7.55 | 7.17 | 5.99 | 7.17 | 7.17 | 6.44 | 7.43 | 7.43 | 6.74 | 6.46 | 7.74 | 6.25
CCN(c1cc2oc(-c3ccc(F)cc3)c(-c3ncc[nH]3)c2cc1C1CC1)S(C)(=O)=O [Example 56, N-[5-cyclopropyl-2-(4-fluorophenyl)-3-(1H-imidazol-2-yl)-1-benzofuran-6-yl]-N-ethylmethanesulfonamide] | 8.46 | 6.66 | 64 fold | 7.77 | 7.56 | 6.72 | 7.56 | 7.56 | 7.21 | 7.92 | 7.92 | 7.31 | 7.37 | 8.02 | 7.09
